Experimental data reported in US6407072B1, “Lysoganglioside derivatives” (Fidia S.p.A., priority 1988, dated 2002).

What was measured:
[1] = test system: Mouse neuroblastoma cells (N2A); assay: Neuritogenic activity in N2A cells: morphology, % of cells with neurites; type: cell-based
Method: Mouse neuroblastoma cells (N2A) at the 180th passage are placed in wells at a concentration of 10,000 cells per well (COSTAR-24). The next day the medium was substituted with 350 μl of DMEM+P/G+10% FCS.
All compounds are dissolved in chloroform/methanol 2:1 dried in N2 current and resuspended in DMEM+P/G+10% FCS. The number of neurites is assessed 24 hours later.

[2] = test system: Mouse neuroblastoma cells (N2A); assay: 3H Tdr in N2A cells; type: cell-based
cerebral granule cells [3] = assay: Glutamate-induced neurotoxicity in primary cultures of cerebral granule cells (cell survival); type: cell-based, rat; conditions: for protection of cells from neurotoxic effect of glutamate, cotreatment: cotreatment 15 minutes with glutamate 50 μM; for protection from neurotoxic effect, cotreatment and prolonged incubation: cotreatment 35 minutes with glutamate, then prolonged exposure (35 minutes); for prevention of glutamate-induced neurotoxicity: pretreatment for 2 hours; for concentration required for maximum protective effect: pretreatment; for reversal of neurotoxic effect of glutamate by post-treatment: post-treatment 20 minutes, after glutamate administered intermittently
Method: (§1) 1.a. Primary cultures of cerebral granule cells from 8-day-old Sprague Dawley rats (Zivic Miller) [Gallo V. et al., Proc. Natl. Acad. Sci. USA 79, 7919-7923 (1982)]. These cultures contain >90% of granule cells, <5% of GABAergic neurons and <5% of glial cells [Vaccarino F. M. et al., J. Neurosci. 7, 65-76 (1987)]. The cells were used for the experiments on the 8th and 9th days of culture.
(§2) On the 8th and 9th days of culture, concentrations varying between 7 and 100 μM of the following substances are added: N-dichloro acetyl lyso GM1, N-monochloro acetyl lyso GM1, GT1b, GM1. More particularly, the monolayers of granule cells are preincubated with these compounds in Locke's solution (1 ml) for 120 minutes (or for periods of time varying between 0 and 120 minutes) at 37° C. Gangliosides and derivatives are previously dissolved and subsequently diluted, if necessary, in methanol: H2O/95:5. Aliquots of the solution are dried in a N2 current and gathered with a suitable volume of Locke's solution until the final concentration is reached.
1.c. Glutamate-induced neurotoxicity.
The neurotoxic effect of glutamate was assessed under various experimental conditions:
Influence of incubation time ([…]) of the substances before exposure to glutamate: intact cells are preincubated with N-dichloro acetyl lyso GM1, N-monochloro acetyl lyso GM1 (7 μM) and GT1b (60 μM) at 37° C. After removal of excess compound by washing, the cells are incubated with 50 μM of glutamate in the absence of Mg+2 for 15 minutes at room temperature after which the cells are washed three more times and then replaced in the medium. Cell survival is assessed after 24 hours by histochemical techniques, or after […] staining which gives green fluorescence to live cells and red to non-living cells.
Influence of the time interval between pre-treatment with ganglioside derivatives or gangliosides themselves and exposure to glutamate: intact granule cells are preincubated for 2 hours at 37° C. with N-dichloro acetyl lyso GM1 (7 μM) GT1b and GM1 (100 μM). Excess compound is removed by washing and the cells exposed to 50 μM of glutamate (in the absence of Mg^+2) for 15 minutes after various time intervals (1, 2, 4, 6, 12, 18, 24 and 48 hours).
Effect of simultaneous treatment with glutamate and gangliosides: intact granule cells are treated (15 and 35 minutes) with 50 μM of glutamate and the gangliosides N-dichloro acetyl lyso GM1 (7 μM), GT1b and GM1 (100 μM) . In the first type of experiment (cotreatment for 15 minutes) the excess compound is removed by washing, and then cell survival is assessed according to the described method. In the second type of experiment (cotreatment for […]) the cotreatment is prolonged for another 35 minutes of exposure to gangliosides.
Effect of N-dichloro acetyl lyso GM1 following intermittent exposure to glutamate: granule cells are exposed intermittently to glutamate and treated with N-dichloro acetyl lyso GM1 (7 μM) for 20 minutes (in the absence of Mg2+). The excess product is removed by washing.

new-born rat = assay: NMDA-induced neurotoxicity in new-born rat (mortality); type: in vivo; conditions: for mortality (deceased/treated) / relative mortality (% of treated): up to 5 days; for protection from mortality following i.c.v. injection of NMDA: s.c., 1 hour before and immediately after NMDA
Method: Newborn rats (7 days old) weighing about 13 g are injected with 25 nmol NMDA i.c.v. Under these conditions the excitotoxin induces a decrease of 28% in weight of the injected hemisphere and a mortality rate of 53.6%.
Administration of the compounds: injection method and parameters observed. […] The compounds were solubilized in PBS. The N-dichloro acetyl lyso GM1 and N-monochloro acetyl lyso GM1 derivatives were tested in comparison to magnesium sulfate, MK-801 (a non-competitive […] of the NMDA receptor) [G. McDonald et al., Eur. J. Pharmacol. 140: 153-157 (1987)] and kinurenic acid [P. Andiné, Neuro-science Letters, 90: 208-212 (1988)] which is capable of diminishing brain damage. Mortality was assessed 5 days after MNDA injection.

[4] = test system: Mouse neuroblastoma cells (N2A); assay: MTT in N2A cells; type: cell-based
Granule cells = assay: N2 anoxia in granule cells, viability by MTT; type: cell-based, rat; conditions: for protection against endogenous glutamate-induced neurotoxicity under anoxic conditions: anoxia in N2 chamber; for MTT O.D. (570-630): N2 anoxia in absence of Mg2+; for MTT O.D. (570-630) / MTT O.D. as % of Control (+ MG^2+): MTT after 24 hours; for MTT O.D. as % of Control (+ MG^2+): N2 anoxia
Method: Pretreatment was performed with LIGA 20 and 21 for 10 minutes, and with GM1 for 60 minutes. The cells are washed with serum and placed in anoxic conditions in the absence of Mg^+2 for 5 hours and replaced in the culture medium. Cell viability was measured 24 hours after with MTT.
as §1
Effect of N-dichloro acetyl lyso GM1 following cell anoxia (in N2 chamber) on protection from endogenous glutamate-induced neurotoxicity. Cell viability is assessed by colorimetry after 24 hours (MTT stains only live cells).

PKC [5] = assay: Translocation of PKC induced by glutamate: [3H]-phorbol ester binding on intact cells; type: cell-based, rat; conditions: for inhibition of PKC translocation, cotreatment and prolonged incubation: cotreatment 35 minutes with glutamate, then prolonged exposure (35 minutes)
Method: as §1, §2
1.d. Translocation of PKC induced by glutamate: assessment of [3H]-phorbol ester binding on intact cells.
The effects of binding of [3H]-phorbol ester are assessed under two different types of experimental conditions: […]
[…] After cotreatment the cells-are washed and [^3H]-PDBu binding is assessed in the presence of Mg^+2. Granule cells are grown on discs measuring 35 mm in diameter and then washed and incubated with Locke's solution containing 4-B-[^3H]-phorbol-12, 13-dibutyrate [^3H]-P(Bto)2, 12.5 Ci/mmol (1 Ci=37 GBq; New England Nuclear), in 0.1% fatty acid-free bovine albumin serum (Sigma Chemical Co.). […] The binding is constant for over one hour. After incubation the cells are washed 3 times with cold Locke's solution and suspended with NaOH 0.1M. The aliquots of suspension are used for protein determination [Lowry O. H. et al., J. Biol. Chem. 193, 256-275 (1951)]. Non-specific binding is assessed in the presence of 2 μM phorbol 12-tetradecanoate 13-acetate (PTA).

cerebral granule cells [6] = conditions: literature reports; cited from earlier work
PKC [7] = conditions: exposure of cerebral granule cells; literature reports; cited from earlier work
[8] = 200 nMoli/animal sc, 1 hr before and immediately after NMDA 25 nMoli i.c.v.
[9] = preincubated 2 hours at 100 μM, glutamate 50 μM
[10] = 75 nMoli/animal (2 mg/kg) i.p., 1 hr before and immediately after NMDA
[11] = cotreatment with glutamate 50 μM, 7 μM

Compound | Morphology (24 hr) % of cells with neurites ([1]; 1 × 10^−4 M) | ^3H Tdr. (48 hr) n = 3 ([2]; 1 × 10^−4 M) | mortality (deceased/treated) (new-born rat; [8]) | relative mortality (% of treated) (new-born rat; [8]) | protection from mortality following i.c.v. injection of NMDA (new-born rat) | MTT (48 hr) n = 3 ([4]; 1 × 10^−4 M) | protection against endogenous glutamate-induced neurotoxicity under anoxic conditions (Granule cells) | MTT O.D. (570-630) (Granule cells; pretreated 5 μm, 10 min) | MTT O.D. as % of Control (+ MG^2+) (Granule cells; pretreated 5 μm, 10 min) | inhibition of PKC translocation, cotreatment and prolonged incubation (PKC [5]; 100 μM) | protection from glutamate-induced cell damage (cerebral granule cells [6]) | protection of cells from neurotoxic effect of glutamate, cotreatment (cerebral granule cells [3]; 100 μM) | protection from neurotoxic effect, cotreatment and prolonged incubation (cerebral granule cells [3]; 100 μM) | persistence of protective effect on glutamate-induced neurotoxicity after removal of the medium (cerebral granule cells [3]; [9]) | translocation and activation of PKC induced by glutamate (PKC [7]) | concentration required for maximum protective effect (cerebral granule cells [3]; glutamate 50 μM) | further results
CCCCCCCCCCCCC/C=C/[C@@H](O)[C@H](CO[C@@H]1O[C@H](CO)[C@@H](O[C@@H]2O[C@H](CO)[C@H](O[C@@H]3O[C@H](CO)[C@H](O)[C@H](O[C@@H]4O[C@H](CO)[C@H](O)[C@H](O)[C@H]4O)[C@H]3NC(C)=O)[C@H](O[C@]3(C(=O)O)C[C@H](O)[C@@H](NC(C)=O)[C@H]([C@H](O)[C@H](O)CO)O3)[C@H]2O)[C@H](O)[C@H]1O)NC(=O)CCl [LIGA 21, N-Monochloroacetyl Lyso GM1] | 80-90% | 14256 ± 1594 | 0/8 | 0% | protected | 0.158 ± 0.01 | active | 0.152 ± 0.013 O.D. | 105% |  |  |  |  |  |  |  | Morphology (24 hr) % of cells with neurites ([1]; 5 × 10^−5 M): 80-90%; Morphology (24 hr) % of cells with neurites ([1]; 5 × 10^−6 M): <5%; ^3H Tdr. (48 hr) n = 3 ([2]; 5 × 10^−5 M): 36016 ± 5030; ^3H Tdr. (48 hr) n = 3 ([2]; 5 × 10^−6 M): 43035 ± 487; concentration range of protection (cerebral granule cells [3]; glutamate-induced neurotoxicity): ~10 µM; MTT (48 hr) n = 3 ([4]; 5 × 10^−5 M): 0.243 ± 0.008; MTT (48 hr) n = 3 ([4]; 5 × 10^−6 M): 0.324 ± 0.01
monosialosyl-N-tetraglycosyl-ceramide [GM1, reference compound] | 70-80% | 40834 ± 1885 |  |  |  | 0.259 ± 0.007 |  |  |  | effective | offer protection | is not | effective | no more than 1 hours | inhibits |  | MTT O.D. (570-630) (Granule cells; pretreated 100 μM, 60 min): 0.160 ± 0.010 O.D.; MTT O.D. as % of Control (+ MG^2+) (Granule cells; pretreated 100 μM, 60 min): 110%
C[C@]12N[C@H](Cc3ccccc31)c1ccccc12 [MK 801, reference compound] |  |  |  |  |  |  |  |  |  |  |  |  |  |  |  |  | mortality (deceased/treated) (new-born rat; [10]): 6/16; relative mortality (% of treated) (new-born rat; [10]): 37%
trisialosyl-N-tetraglycosylceramide [GT1b, reference compound] |  |  |  |  |  |  |  |  |  | effective | offer protection | is not | effective | 4 h | inhibits | 60 µM | incubation time after which protection is significant (cerebral granule cells [3]; 60 μM, glutamate 50 μM): 60 min; prevention of glutamate-induced neurotoxicity (cerebral granule cells [3]; 60 μM, glutamate 50 μM): almost totally prevents
CCCCCCCCCCCCCC=CC(O)C(COC1OC(CO)C(OC2OC(CO)C(OC3OC(CO)C(O)C(OC4OC(CO)C(O)C(O)C4O)C3NC(C)=O)C(OC3(C(=O)O)CC(O)C(NC(C)=O)C(C(O)C(O)CO)O3)C2O)C(O)C1O)NC(=O)C(Cl)Cl (stereo not drawn) [LIGA 20, N-dichloroacetyl Lyso GM1] |  |  | 1/8 | 12.5% | protected |  | active | 0.163 ± 0.012 O.D. | 112% |  |  |  |  |  |  | 7 µM | inhibition of PKC translocation, cotreatment and prolonged incubation (PKC [5]; 7 μM): effective; inhibition of PKC translocation induced by glutamate, cotreatment (PKC [5]; [11]): inhibits; time of maximum activity in inhibiting PKC translocation (PKC [5]; [11]): 30 min; concentration for maximum effect, times less than that of GT1b (cerebral granule cells [3]; 7 μM vs 60 μM): more than 8 times; preincubation time after which protection is evident (cerebral granule cells [3]; 7 μM, glutamate 50 μM): 5 min; protection of cells from neurotoxic effect of glutamate, cotreatment (cerebral granule cells [3]; 7 μM): effective; protection from neurotoxic effect, cotreatment and prolonged incubation (cerebral granule cells [3]; 7 μM): effective; reversal of neurotoxic effect of glutamate by post-treatment (cerebral granule cells [3]; 7 μM): prevents; reversal of neurotoxic effect of glutamate by post-treatment (cerebral granule cells [3]; 7 μM, listed as N-dichloro acetyl lyso GM1): active; persistence of protective effect on glutamate-induced neurotoxicity after removal of the medium (cerebral granule cells [3]; preincubated 2 hours at 7 μM, glutamate 50 μM): at least 24 hours; prevention of glutamate-induced neurotoxicity (cerebral granule cells [3]; 7 μM, glutamate 50 μM): almost totally prevents
N′-monochloro acetyl lyso GM1 [LIGA 22] | <5% |  |  |  |  |  |  |  |  |  |  |  |  |  |  |  | 
